Laboratory results as given in ChEMBL document CHEMBL5375953, “Discovery of Biaryl Amide Derivatives as Potent, Selective, and Orally Bioavailable RORγt Agonists for Cancer Immunotherapy” (J Med Chem, 2023).

Legend:
[1] = test system: B16-F10; test: Antitumor activity against mouse B16-F10 cells xenografted in C57BL/6 mouse assessed as tumor growth inhibition at 50 mg/kg,ip administrated on day 7 for 8 days relative to control; assay type: functional; conditions: B16-F10, 192 h, time 8 day, read-out: TGI
[2] = Metabolic Stability in cynomolgus monkey liver microsome assessed as intrinsic clearance at […] measured upto 60 mins by HPLC-MS/MS analysis; assay type: ADME, Macaca fascicularis; conditions: microsomes, 1 h
[3] = Genotoxicity in Salmonella typhimurium TA100 by mini-Ames mutagenicity test; assay type: toxicity; conditions: salmonella enterica subsp. enterica serovar typhimurium
[4] = Half life in CD-1 mouse at 1 mg/kg,iv administration measured after 24 hrs by LC-MS/MS analysis; assay type: ADME, organism-based; conditions: in vivo
[5] = AUC(infinity) in CD-1 mouse at 5 mg/kg,po administration measured after 24 hrs by LC-MS/MS analysis; assay type: ADME, organism-based; set-up: dose 5 mg/kg, time 24 hrs, route po; conditions: in vivo
[6] = Toxicity against C57BL/6 mouse xenografted with mouse B16-F10 cells assessed as animal death at 25 to 100 mg/kg,ip administrated on day 7 for 8 days; assay type: organism-based; conditions: in vivo, 192 h, dose 25-100 mg/kg, time 8 day
[7] = Oral bioavailability in dog at 2 mg/kg administration measured after 24 hrs by LC-MS/MS analysis; assay type: ADME, organism-based, Canis lupus familiaris; conditions: in vivo
[8] = Half life in rat at 1 mg/kg,iv administration measured after 24 hrs by LC-MS/MS analysis; assay type: ADME, organism-based; conditions: in vivo
[9] = AUC(infinity) in rat at 1 mg/kg,iv administration measured after 24 hrs by LC-MS/MS analysis; assay type: ADME, organism-based; set-up: dose 1 mg/kg, time 24 hrs, route iv; conditions: in vivo
[10] = Toxicity against C57BL/6 mouse xenografted with mouse B16-F10 cells assessed as body weight loss at 25 to 100 mg/kg,ip administrated on day 7 for 8 days; assay type: organism-based; conditions: in vivo, 192 h, dose 25-100 mg/kg, time 8 day
[11] = AUC(infinity) in CD-1 mouse at 1 mg/kg,iv administration measured after 24 hrs by LC-MS/MS analysis; assay type: ADME, organism-based; set-up: time 24 hrs, dose 1 mg/kg, route iv; conditions: in vivo
[12] = Clearance in dog at 1 mg/kg,iv administration measured after 24 hrs by LC-MS/MS analysis; assay type: ADME, organism-based, Canis lupus familiaris; conditions: in vivo
[13] = Metabolic Stability in human liver microsome assessed as microsomal intrinsic clearance at […] measured upto 60 mins by HPLC-MS/MS analysis; assay type: ADME; conditions: liver microsomes, read-out: CLH
[14] = Metabolic Stability in mouse liver microsome assessed as half life at […] measured upto 60 mins by HPLC-MS/MS analysis; assay type: ADME; conditions: liver microsomes
[15] = Antitumor activity against mouse Lung adenocarcinoma cell line xenografted in C57BL/6 mouse assessed as tumor growth inhibition at 50 mg/kg,ip administrated on day 7 for 12 days relative to control; assay type: functional; conditions: 288 h, time 12 day, read-out: TGI
[16] = AUC(infinity) in rat at 5 mg/kg,po administration measured after 24 hrs by LC-MS/MS analysis; assay type: ADME, organism-based; set-up: time 24 hrs, dose 5 mg/kg, route po; conditions: in vivo
[17] = molecular target: T1, Nuclear receptor ROR-beta (Homo sapiens, UniProt Q92753); test: Agonist activity at human Gal4-fused RORbeta expressed in HEK293T cells assessed as luciferase activity incubated for 16 to 20 hrs by Luciferase reporter gene assay; assay type: cell-based
T1 sequence (Q92753 whole entry): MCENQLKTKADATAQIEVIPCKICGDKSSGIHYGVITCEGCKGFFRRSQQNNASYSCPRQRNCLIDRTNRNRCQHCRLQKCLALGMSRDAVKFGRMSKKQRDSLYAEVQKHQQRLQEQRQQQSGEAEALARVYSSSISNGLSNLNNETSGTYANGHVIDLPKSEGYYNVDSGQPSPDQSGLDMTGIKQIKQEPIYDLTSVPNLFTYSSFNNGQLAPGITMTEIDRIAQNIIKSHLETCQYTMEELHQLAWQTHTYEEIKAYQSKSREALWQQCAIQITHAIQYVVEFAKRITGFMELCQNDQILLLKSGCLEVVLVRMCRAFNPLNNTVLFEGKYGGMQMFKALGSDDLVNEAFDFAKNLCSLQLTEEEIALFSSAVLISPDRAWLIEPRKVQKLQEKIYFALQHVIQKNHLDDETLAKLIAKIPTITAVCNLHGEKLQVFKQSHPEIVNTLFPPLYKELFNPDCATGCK

[18] = Clearance in rat at 1 mg/kg,iv administration measured after 24 hrs by LC-MS/MS analysis; assay type: ADME, organism-based; conditions: in vivo
[19] = Cmax in rat at 5 mg/kg,po administration measured after 24 hrs by LC-MS/MS analysis; assay type: ADME, organism-based; set-up: time 24 hrs, dose 5 mg/kg, route po; conditions: in vivo
[20] = Volume of distribution at steady state in dog at 1 mg/kg,iv administration measured after 24 hrs by LC-MS/MS analysis; assay type: ADME, organism-based, Canis lupus familiaris; conditions: in vivo, read-out: Vdss
[21] = AUC(infinity) in dog at 1 mg/kg,iv administration measured after 24 hrs by LC-MS/MS analysis; assay type: ADME, organism-based, Canis lupus familiaris; set-up: time 24 hrs, dose 1 mg/kg, route iv; conditions: in vivo
[22] = Half life in CD-1 mouse at 5 mg/kg,po administration measured after 24 hrs by LC-MS/MS analysis; assay type: ADME, organism-based; conditions: in vivo
[23] = Metabolic Stability in human liver microsome assessed as intrinsic clearance at […] measured upto 60 mins by HPLC-MS/MS analysis; assay type: ADME; conditions: microsomes, 1 h
[24] = Genotoxicity in Salmonella typhimurium TA98 by mini-Ames mutagenicity test; assay type: toxicity; conditions: salmonella enterica subsp. enterica serovar typhimurium
[25] = Metabolic Stability in dog liver microsome assessed as half life at […] measured upto 60 mins by HPLC-MS/MS analysis; assay type: ADME, Canis lupus familiaris; conditions: liver microsomes
[26] = Toxicity against C57BL/6 mouse xenografted with mouse Lung adenocarcinoma cell line assessed as change in body weight at 25 mg/kg,ip administrated on day 7 for 12 days; assay type: organism-based; conditions: in vivo, 288 h, time 12 day
[27] = Half life in rat at 5 mg/kg,po administration measured after 24 hrs by LC-MS/MS analysis; assay type: ADME, organism-based; conditions: in vivo
[28] = Toxicity against C57BL/6 mouse xenografted with mouse Lung adenocarcinoma cell line assessed as change in body weight at 100 mg/kg,po administrated on day 7 for 12 days; assay type: organism-based; conditions: in vivo, 288 h, time 12 day
[29] = Half life in dog at 1 mg/kg,iv administration measured after 24 hrs by LC-MS/MS analysis; assay type: ADME, organism-based, Canis lupus familiaris; conditions: in vivo
[30] = Volume of distribution at steady state in CD-1 mouse at 1 mg/kg,iv administration measured after 24 hrs by LC-MS/MS analysis; assay type: ADME, organism-based; conditions: in vivo
[31] = Metabolic Stability in mouse liver microsome assessed as intrinsic clearance at […] measured upto 60 mins by HPLC-MS/MS analysis; assay type: ADME; conditions: microsomes, 1 h
[32] = Cmax in CD-1 mouse at 5 mg/kg,po administration measured after 24 hrs by LC-MS/MS analysis; assay type: ADME, organism-based; set-up: dose 5 mg/kg, time 24 hrs, route po; conditions: in vivo
[33] = Metabolic Stability in human liver microsome assessed as half life at […] measured upto 60 mins by HPLC-MS/MS analysis; assay type: ADME; conditions: liver microsomes
[34] = Metabolic Stability in cynomolgus monkey liver microsome assessed as microsomal intrinsic clearance at […] measured upto 60 mins by HPLC-MS/MS analysis; assay type: ADME, Macaca fascicularis; conditions: liver microsomes, read-out: CLH
[35] = Metabolic Stability in rat liver microsome assessed as microsomal intrinsic clearance at […] measured upto 60 mins by HPLC-MS/MS analysis; assay type: ADME; conditions: liver microsomes, read-out: CLH
[36] = AUC(infinity) in dog at 2 mg/kg,po administration measured after 24 hrs by LC-MS/MS analysis; assay type: ADME, organism-based, Canis lupus familiaris; set-up: dose 2 mg/kg, time 24 hrs, route po; conditions: in vivo
[37] = molecular target: Voltage-gated inwardly rectifying potassium channel KCNH2 (Homo sapiens, UniProt Q12809); test: Inhibition of hERG potassium channel by patch clamp assay; assay type: toxicity
Chain of Voltage-gated inwardly rectifying potassium channel KCNH2 (Q12809 whole entry): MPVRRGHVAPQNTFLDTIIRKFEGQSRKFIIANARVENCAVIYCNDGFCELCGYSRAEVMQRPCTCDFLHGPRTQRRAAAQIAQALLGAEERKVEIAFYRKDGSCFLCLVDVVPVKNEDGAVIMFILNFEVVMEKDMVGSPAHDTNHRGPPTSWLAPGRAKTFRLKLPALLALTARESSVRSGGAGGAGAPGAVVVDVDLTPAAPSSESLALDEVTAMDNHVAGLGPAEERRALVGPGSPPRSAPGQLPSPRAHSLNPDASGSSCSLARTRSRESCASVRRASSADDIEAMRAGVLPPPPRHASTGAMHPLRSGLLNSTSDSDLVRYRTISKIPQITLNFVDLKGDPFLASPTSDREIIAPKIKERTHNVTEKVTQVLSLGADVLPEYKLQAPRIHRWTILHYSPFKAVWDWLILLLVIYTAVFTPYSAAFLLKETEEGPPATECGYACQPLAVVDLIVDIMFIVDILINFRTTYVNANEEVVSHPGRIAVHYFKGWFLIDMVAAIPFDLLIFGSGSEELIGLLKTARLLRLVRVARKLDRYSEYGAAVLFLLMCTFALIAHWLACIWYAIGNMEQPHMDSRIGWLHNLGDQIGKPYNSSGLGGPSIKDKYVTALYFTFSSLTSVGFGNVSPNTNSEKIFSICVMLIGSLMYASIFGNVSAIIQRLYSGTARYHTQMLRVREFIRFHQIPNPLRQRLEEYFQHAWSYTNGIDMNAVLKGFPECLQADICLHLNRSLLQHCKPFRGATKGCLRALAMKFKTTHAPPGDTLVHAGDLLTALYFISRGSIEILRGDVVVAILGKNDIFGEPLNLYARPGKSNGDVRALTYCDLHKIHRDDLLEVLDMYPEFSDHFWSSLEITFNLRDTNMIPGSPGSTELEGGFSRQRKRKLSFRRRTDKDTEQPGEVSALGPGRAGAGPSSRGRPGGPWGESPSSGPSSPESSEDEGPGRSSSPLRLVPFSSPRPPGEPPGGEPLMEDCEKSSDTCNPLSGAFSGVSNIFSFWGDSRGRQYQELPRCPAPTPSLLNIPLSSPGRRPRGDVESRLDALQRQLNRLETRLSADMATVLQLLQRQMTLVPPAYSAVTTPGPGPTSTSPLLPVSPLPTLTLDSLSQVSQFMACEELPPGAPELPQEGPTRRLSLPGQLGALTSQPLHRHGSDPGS

## CCS(=O)(=O)c1ccc(CC(=O)Nc2cc(Cl)c(-c3ccc(OC(C)C)c(C#N)c3)c(Cl)c2)cc1
[1]
  inhibition in vivo at 50 mg/kg: 54.7%
[2]
  CLH: 60.2 µL/min/mg
[3]
  Activity: Non-Toxic
[4]
  t1/2: 6.3 h
[5]
  AUC(0-inf): 20600 ng·h/mL
[6]
  Activity: Non-Toxic
[7]
  bioavailability: 52.2%
[8]
  half-life: 11.2 h
[9]
  AUC(0-inf): 5410 ng·h/mL
[10]
  Activity: Non-Toxic
[11]
  AUC: 4621.9 ng·h/mL
[12]
  clearance: 0.64 mL/min/kg
[13]
  microsomal CLint: < 9.6 µL/min/mg
[14]
  half-life: > 2.42 h
[15]
  inhibition in vivo at 50 mg/kg: 75.6%
[16]
  AUC(0-inf): 10600 ng·h/mL
[17]
  EC50: > 10 µM
[18]
  clearance: 3.2 mL/min/kg
[19]
  Cmax: 503 ng/mL
[20]
  Vd: 2.5 L/kg
[21]
  AUC(0-inf): 27000 ng·h/mL
[22]
  half-life: 6 h
[23]
  CLH: < 8.6 µL/min/mg
[24]
  Activity: Non-Toxic
[25]
  half-life: > 2.42 h
[26]
  Activity: Non-Toxic
[27]
  half-life: 11.4 h
[28]
  Activity: Non-Toxic
[29]
  half-life: 46.5 h
[30]
  Vdss: 2 L/kg
[31]
  CLH: < 38 µL/min/mg
[32]
  Cmax: 1810 ng/mL
[33]
  half-life: > 2.42 h
[34]
  microsomal CLint: 44.6 µL/min/mg
[35]
  microsomal CLint: < 9.6 µL/min/mg
[36]
  AUC(0-inf): 33000 ng·h/mL
[37]
  IC50: > 10 µM
